Results reported in US20120171123A1, “USES AND COMPOSITIONS FOR TREATMENT OF RHEUMATOID ARTHRITIS” (priority 2006, published 2012).
Several values for one entry are separate records, joined by “and”; a condition that tells them apart may be missing. Equal values may be shown once.

Key:
[1] = system: MTX-naïve adult patients with active, early RA (<3 years); details: human, in vivo
[2] = system: patients with active rheumatoid arthritis; experiment: Study A: EULAR response (moderate/good); assay type: in vivo, human; details: for Good EULAR response (%) / Moderate EULAR response (%): LOCF
Excerpt: In one embodiment, the invention provides a method for determining the efficacy of a TNFα inhibitor, including a human TNFα antibody, for treating RA in a subject, using the EULAR response of a subject or patient population. European League Against Rheumatism (EULAR) Response Criteria uses a Disease Activity Score (DAS) for defining response. To be classified as responders, patients should have a significant change in DAS and also low current disease activity. Response is defined as both: (a) change in disease activity from baseline and (b) the level of disease activity reached during follow-up. Criteria used to define DAS include: Ritchie articular index, swollen joint count (44-joint count), erythrocyte sedimentation rate, and […]. A modified version of the DAS criteria, DAS28, uses a 28-joint count for swollen and tender joints. Response is defined as a combination of a significant change from baseline and the level of disease activity attained. Good response is defined as a significant decrease in DAS (>1.2) and a low level of disease activity (< or =2.4). Non-response is defined as a decrease < or =0.6, or a decrease >0.6 and < or =1.2 with an attained DAS >3.7. Any other scores are regarded as moderate responses. Thus, three categories are defined: good, moderate, and non-responders. For details of EULAR criteria see Van Gestel et al. (1996) 39(1):34-40, incorporated by reference herein.
The study design included a 12 week open label treatment period followed by a continuation period examining safety and efficacy. […] The main inclusion criteria for the study were the following: males and females ≧18 years; rheumatoid arthritis (RA; defined by ACR criteria) for ≧3 months; unsatisfactory response (or intolerance) to at least one prior DMARD; and patients with active RA (DAS28≧3.2). Baseline demographics and disease severity is shown below in Table 1:
Efficacy of adalimumab treatment was determined by examining signs and symptoms of the patients. Various assays were used to determine efficacy, including ACR response, EULAR response, TJC and SJC count, and DAS28.
The objective of this study was to evaluate the impact of prior biologic therapies, in particular TNF-antagonists etanercept (ETA) and infliximab (INF), on key efficacy parameters of adalimumab therapy in patients with long-standing RA in clinical practice. To evaluate the impact of prior biological therapies, patients with moderate to severe RA enrolled at 450 sites in 11 European countries plus Australia (Study A). Patients with moderate to severe RA and an inadequate response to prior DMARD therapies were enrolled in a 12-week open-label study with an optional extension phase. […] Patients with previous biologic treatment must have received the last administration at least 8 weeks before enrollment Routine safety and efficacy data were collected at weeks 2, 6, and 12, and every 8 weeks in the extension phase. Efficacy parameters included ACR20, ACR50, ACR70, EULAR Response, HAQ, tender and swollen joint count (TJC28/SJC28), and DAS28. […] For this interim analysis, efficacy outcomes were evaluated after 12 weeks of therapy per the number and type of prior biologics used: None, any (ETA, INF, anakinra), ETA only, INF only, or ETA and INF but not anakinra.
Patients with long-standing, moderate to severe RA were enrolled in Study A at 450 sites in 12 different countries. The study design for Study A is outlined in FIG. 21. […] Previous treatment with other biologics was allowed up to 8 weeks before enrollment. Patients met the following inclusion criteria: Age ≧18 years; RA (defined by American College of Rheumatology criteria) for ≧3 months; active, moderate to severe RA (Disease Activity Score (DAS28)≧3.2); unsatisfactory response or intolerance to at least one prior DMARD, including biologics. Efficacy assessments were performed at weeks 0 (baseline), 2, 6, and 12. […]

[3] = Week 12, No prior ETA and/or INF (n=5711)
[4] = Week 12, Prior ETA and/or INF (n=899)
[5] = Week 12, concomitant Cq/Hcq + mtx (n=153)
[6] = Week 12, concomitant LEF only (n=557)
[7] = Week 12, concomitant MTX + LEF (n=123)
[8] = Week 12, concomitant MTX only (n=1561)
[9] = Week 12, concomitant QC/HQC (n=85)
[10] = Week 12, concomitant SSZ only (n=89)
[11] = Wk 12, concomitant MTX Im 15 mg (N=76), no other DMARD
[12] = Wk 12, concomitant MTX Iv 15 mg (N=23), no other DMARD
[13] = Wk 12, concomitant MTX Sc 15 mg (N=37), no other DMARD
[14] = Wk 12, concomitant MTX oral 15 mg (N=405), no other DMARD
[15] = Wk 12, concomitant MTX oral ≦7.5 (N=127), no other DMARD
[16] = Wk 12, concomitant MTX oral ≧20 mg (N=216), no other DMARD
[17] = week 12, concomitant hydroxychloroquine exclusively
[18] = week 12, concomitant leflunomide exclusively
[19] = week 12, concomitant mtx exclusively
[20] = week 12, concomitant sulfasalazine exclusively
[21] = week 12, prior biologic: ETA + INF

## adalimumab: human anti-TNF mAb (HUMIRA, Abbott Laboratories), described in U.S. Pat. No. 6,090,382 as D2E7
[1]
  withdrawn, reason AE: 11%
[2]; 12 weeks, N=2008 analysis
  Good EULAR response: 34%
  Moderate EULAR response: 82%
[2]; 12 weeks, no prior response to ETA and INF
  Moderate EULAR response: 50%
[2]; Week 12
  Good EULAR response (%): 32%
  Moderate EULAR response (%): 81%
[2]; [3]
  Good EULAR: 35 % of patients
  Moderate EULAR: 84 % of patients
[2]; [4]
  Good EULAR: 23 % of patients
  Moderate EULAR: 76 % of patients
[2]; [5]
  Good EULAR: 40 % of patients
  Moderate EULAR: 88 % of patients
[2]; [6]
  Good EULAR response: 31%
  Moderate EULAR response: 79%
[2]; [7]
  Good EULAR response: 29%
  Moderate EULAR response: 86%
[2]; Week 12, concomitant MTX + SSZ
  Good EULAR response: 41%
  Moderate EULAR response: 89%
[2]; [8]
  Good EULAR response: 39%
  Moderate EULAR response: 84%
[2]; [9]
  Good EULAR response: 25%
  Moderate EULAR response: 85%
[2]; [10]
  Good EULAR response: 39%
  Moderate EULAR response: 75%
[2]; Week 28
  Good EULAR response (%): 37%
  Moderate EULAR response (%): 81%
[2]; Week 36
  Good EULAR response (%): 37%
  Moderate EULAR response (%): 82%
[2]; Week 52
  Good EULAR response (%): 38%
  Moderate EULAR response (%): 82%
[2]; [11]
  Good EULAR response: 38%
  Moderate EULAR response: 80%
[2]; [12]
  Good EULAR response: 41%
  Moderate EULAR response: 86%
[2]; [13]
  Good EULAR response: 25%
  Moderate EULAR response: 86%
[2]; [14]
  Good EULAR response: 39%
  Moderate EULAR response: 86%
[2]; [15]
  Good EULAR response: 36%
  Moderate EULAR response: 84%
[2]; [16]
  Good EULAR response: 50%
  Moderate EULAR response: 89%
[2]; week 2, French patients
  at least a Moderate EULAR response: 64%
[2]; week 12, 1 prior biologic
  Good EULAR response: 25%
  Moderate EULAR response: 78%
[2]; week 12, 2 prior biologics
  Good EULAR response: 11%
  Moderate EULAR response: 76%
[2]; week 12, 3 prior biologics
  Good EULAR response: 8%
  Moderate EULAR response: 75%
[2]; week 12, French patients
  at least a Moderate EULAR response: 80%
[2]; week 12, all patients
  Good EULAR response: 34%
  Moderate EULAR response: 83%
[2]; [17]
  Good EULAR: 25 % of patients
  Moderate EULAR: 75 % of patients
[2]; [18]
  Good EULAR: 31 % of patients
  Moderate EULAR: 79 % of patients
[2]; [19]
  Good EULAR: 39 % of patients
  Moderate EULAR: 84 % of patients
[2]; [20]
  Good EULAR: 31 % of patients
  Moderate EULAR: 79 % of patients
[2]; week 12, no prior biologic
  Good EULAR response: 34%
  Moderate EULAR response: 81%
[2]; week 12, prior anakinra
  Good EULAR: 36 % of patients
  Moderate EULAR: 75 % of patients
[2]; week 12, prior biologic (any)
  Good EULAR: 22 % of patients
  Moderate EULAR: 77 % of patients
[2]; week 12, prior etanercept only
  Good EULAR response: 25% and 24%
  Moderate EULAR response: 76%
[2]; week 12, prior infliximab only
  Good EULAR response: 22%
  Moderate EULAR response: 80%
[2]; week 12, prior biologic: Any
  Good EULAR: 23 % of patients
  Moderate EULAR: 75 % of patients
[2]; week 12, prior biologic: ETA
  Good EULAR: 21 % of patients
  Moderate EULAR: 74 % of patients
[2]; [21]
  Good EULAR: 12 % of patients
  Moderate EULAR: 61 % of patients
[2]; week 12, prior biologic: INF
  Good EULAR: 25 % of patients
  Moderate EULAR: 78 % of patients
[2]; week 12, prior biologic: None
  Good EULAR: 39 % of patients
  Moderate EULAR: 82 % of patients
